Among the test systems are SF-295; DU-145; SK-MEL-2; Malme-3M; CCRF-CEM; SF-539; NCI-H23; NCI-H460; HT-29; OVCAR-3; HL-60; M14; SNB-75; HOP-92; LOX IMVI; CAKI-1; OVCAR-4; RXF 393; MDA-MB-435; EKVX.
What all share (experiment): NCI-60 cell line screen, 48 h

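Growth conditions: 96-well plates. Treatment: test compound, 48 hours, 5 concentrations. Analysis: linear interpolation between bracketing concentrations; unreached endpoints set to highest concentration. The concentration for 50% growth inhibition is given as GI50.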 Active and inactive are the calls of the source. Cut-off read from the data, not from the text of the source: active = GI50 up to about 1.1 µM and inactive = higher. Some results are limits rather than exact numbers.

This note sets out measurements from ChEMBL document CHEMBL1201862, “PubChem BioAssay data set” (2004).

Turning to `N#Cc1ccnc(C(=O)N2CCCC2C(=O)O)c1` (stereo not given), the GI50 in the experiment on SF-295, with DU-145, in the experiment on SK-MEL-2, in the experiment on Malme-3M, in the experiment with CCRF-CEM and in the experiment with SF-539 was > 100 µM (inactive) in each case. In addition, the GI50 with NCI-H23, in the experiment on NCI-H460, in the experiment with HT-29, with OVCAR-3, in the experiment with HL-60 and in the experiment with M14 was > 100 µM (inactive) in each case. In addition, the GI50 with SNB-75, in the experiment with HOP-92, with LOX IMVI, in the experiment with CAKI-1, with OVCAR-4 and in the experiment on RXF 393 was > 100 µM (inactive) each time. Also, the GI50 in the experiment with MDA-MB-435 and in the experiment on EKVX was > 100 µM (inactive) throughout.

`Nc1ncc(Cc2nc3ccccc3s2)s1`: the GI50 in the experiment with SF-295 was 40.9 µM (inactive); in the experiment on DU-145 it was > 100 µM (inactive); with SK-MEL-2 it was > 100 µM (inactive); with Malme-3M, 68.9 µM (inactive); in the experiment with CCRF-CEM, 30.3 µM (inactive); in the experiment with SF-539, > 100 µM (inactive). Further, the GI50 with NCI-H23 was > 10 µM (inactive); with NCI-H460 it was 73.6 µM (inactive); in the experiment with HT-29, 29.3 µM (inactive); in the experiment with OVCAR-3, 47.3 µM (inactive); in the experiment with HL-60 it was > 100 µM (inactive); in the experiment with M14, 42.3 µM (inactive). Moreover, the GI50 is > 100 µM (inactive) in the experiment on SNB-75; 68.4 µM (inactive) with HOP-92; > 100 µM (inactive) with LOX IMVI; 53.3 µM (inactive) with CAKI-1; > 100 µM (inactive) in the experiment with OVCAR-4; > 100 µM (inactive) in the experiment with RXF 393. The GI50 with MDA-MB-435 was 39.2 µM (inactive); with EKVX it was 30 µM (inactive).

As to `Ic1cccc(/C=C/CN2CCN(CCOC(c3ccccc3)c3ccccc3)CC2)c1`, the GI50 with SF-295 was 17.5 µM (inactive); in the experiment with DU-145 it was 13.2 µM (inactive); in the experiment with SK-MEL-2 it was 17.7 µM (inactive); with Malme-3M, 18.9 µM (inactive); in the experiment on CCRF-CEM, 6.5 µM (inactive); with SF-539, 17.3 µM (inactive). The GI50 is 16.2 µM (inactive) in the experiment with NCI-H23; 11.3 µM (inactive) in the experiment on NCI-H460; 6.47 µM (inactive) in the experiment on HT-29; 16.7 µM (inactive) with OVCAR-3; 8.91 µM (inactive) with HL-60; 14.6 µM (inactive) in the experiment on M14. For the same molecule, the GI50 is 11.5 µM (inactive) in the experiment on SNB-75; 14.4 µM (inactive) with HOP-92; 13.2 µM (inactive) in the experiment with LOX IMVI; 17.5 µM (inactive) in the experiment with CAKI-1; 17.5 µM (inactive) in the experiment with OVCAR-4; 10.7 µM (inactive) in the experiment with RXF 393. Moreover, the GI50 in the experiment on MDA-MB-435 is 14.4 µM (inactive); in the experiment on EKVX it was 17.7 µM (inactive).

With `CC1=C2O[C@]3(O)C=C2C(=C(O)C1=O)[C@@H]1O[C@H](CC[C@H](C)/C=C(\C)C[C@@H](C)C[C@@H]3C)[C@H](C)[C@H](O)[C@H]1C` [KENDOMYCIN], the GI50 is 1.22 µM (inactive) with SF-295; 0.265 µM (active) with DU-145; 0.247 µM (active) in the experiment on SK-MEL-2; 0.194 µM (active) in the experiment on Malme-3M; 0.0473 µM (active) in the experiment with CCRF-CEM; 0.173 µM (active) in the experiment on SF-539. In addition, the GI50 in the experiment with NCI-H23 was 0.316 µM (active); in the experiment on NCI-H460 it was 0.728 µM (active); in the experiment with HT-29, 0.181 µM (active); in the experiment on OVCAR-3, 0.15 µM (active); with HL-60, 0.145 µM (active); with M14, 0.161 µM (active). For the same molecule, the GI50 in the experiment on SNB-75 is 0.394 µM (active); with HOP-92 it was 0.13 µM (active); in the experiment with LOX IMVI it was 0.24 µM (active); in the experiment on CAKI-1, 0.541 µM (active); in the experiment on OVCAR-4, 0.194 µM (active); in the experiment with RXF 393, 0.161 µM (active). In addition, the GI50 with MDA-MB-435 is 0.145 µM (active); in the experiment on EKVX, 0.356 µM (active).

As for `COc1ccc(C(C)c2cc3c(cc2OC)OCO3)cc1` (stereo not given), the GI50 in the experiment with SF-295 was 0.0611 µM (active); in the experiment on DU-145, 0.231 µM (active); in the experiment on SK-MEL-2, 0.0767 µM (active); in the experiment on Malme-3M it was 0.0951 µM (active); in the experiment on CCRF-CEM, 0.131 µM (active); in the experiment with SF-539 it was 0.1 µM (active). Moreover, the GI50 in the experiment with NCI-H23 is 0.169 µM (active); with NCI-H460, 0.122 µM (active); with HT-29 it was 0.0798 µM (active); in the experiment on OVCAR-3, 0.107 µM (active); with HL-60, 0.0802 µM (active); in the experiment on M14 it was 0.0738 µM (active). Besides, the GI50 with SNB-75 was 0.06 µM (active); with HOP-92, 1.45 µM (inactive); in the experiment on LOX IMVI it was 0.205 µM (active); in the experiment with CAKI-1 it was 0.107 µM (active); with OVCAR-4 it was 49.4 µM (inactive); in the experiment on RXF 393, 0.264 µM (active). Further, the GI50 with MDA-MB-435 is 0.0175 µM (active); in the experiment with EKVX, 17.4 µM (inactive).

Regarding `CCOC(=O)c1ccc(-c2cccs2)[nH]1`, the GI50 in the experiment on SF-295 is > 100 µM (inactive); in the experiment with DU-145, 49 µM (inactive); in the experiment with SK-MEL-2 it was > 100 µM (inactive); in the experiment on Malme-3M, 63.4 µM (inactive); in the experiment on CCRF-CEM, > 81.3 µM (inactive); with SF-539, > 100 µM (inactive). For the same molecule, the GI50 in the experiment with NCI-H23 was 67.5 µM (inactive); in the experiment on NCI-H460, > 100 µM (inactive); with HT-29, 54 µM (inactive); in the experiment on OVCAR-3, 59.8 µM (inactive); in the experiment with HL-60, 38.8 µM (inactive); with M14, 63.5 µM (inactive). The GI50 is > 100 µM (inactive) in the experiment on SNB-75; 12.1 µM (inactive) in the experiment on HOP-92; > 100 µM (inactive) in the experiment with LOX IMVI; > 92.5 µM (inactive) in the experiment on CAKI-1; 31.6 µM (inactive) in the experiment on OVCAR-4; > 66.4 µM (inactive) in the experiment with RXF 393. Moreover, the figures for the GI50 with MDA-MB-435 and in the experiment on EKVX were 44.3 µM (inactive) and 38.8 µM (inactive), respectively.

For `COC(=O)c1ccc2c(c1)C(NC(C)=O)CCc1cc(OC)c(OC)c(OC)c1-2` (stereo not given), the GI50 was 0.0117 µM (active) in the experiment with SF-295; 0.014 µM (active) in the experiment on DU-145; 0.0208 µM (active) in the experiment with SK-MEL-2; 0.015 µM (active) in the experiment with Malme-3M; 0.0133 µM (active) with CCRF-CEM; 0.0124 µM (active) with SF-539. The GI50 in the experiment with NCI-H23 was 0.0136 µM (active); in the experiment with NCI-H460 it was 0.0259 µM (active); with HT-29 it was 0.0125 µM (active); in the experiment with OVCAR-3, < 0.0116 µM (active); with HL-60, 0.0136 µM (active); in the experiment with M14 it was 0.0153 µM (active). For the same molecule, the GI50 in the experiment on SNB-75 was 0.0129 µM (active); in the experiment with HOP-92, 0.0391 µM (active); with LOX IMVI, 0.0149 µM (active); with CAKI-1, 0.0177 µM (active); with OVCAR-4 it was 11.9 µM (inactive); in the experiment with RXF 393, 0.0139 µM (active). In addition, the GI50 is < 0.01 µM (active) in the experiment with MDA-MB-435 and 4.19 µM (inactive) in the experiment on EKVX.

`NC1=CN(CCCO)C2=N/C(=C\c3ccco3)C(=O)N12`: the GI50 with SF-295, in the experiment on DU-145, in the experiment on SK-MEL-2, in the experiment with Malme-3M, in the experiment on CCRF-CEM and in the experiment with SF-539 was > 100 µM (inactive) each time. Besides, the GI50 in the experiment with NCI-H23, with NCI-H460, with HT-29, in the experiment with OVCAR-3, in the experiment on HL-60 and in the experiment with M14 was > 100 µM (inactive) each time. In addition, the GI50 with SNB-75, in the experiment on HOP-92, with LOX IMVI, in the experiment with CAKI-1, with OVCAR-4 and in the experiment on RXF 393 was > 100 µM (inactive) in each case. Moreover, the GI50 in the experiment with MDA-MB-435 and with EKVX was > 100 µM (inactive) in each case.

Regarding `CC(=O)OC1CC(n2cc(F)c(=O)[nH]c2=O)OC1CO` (stereo not given), the GI50 is 0.209 µM (active) in the experiment on SF-295; 1.15 µM (inactive) in the experiment on DU-145; > 28.8 µM (inactive) in the experiment on SK-MEL-2; 18 µM (inactive) with Malme-3M; 0.117 µM (active) in the experiment with CCRF-CEM; 0.0418 µM (active) in the experiment with SF-539. The GI50 in the experiment on NCI-H23 was 2 µM (inactive); with NCI-H460, 0.0177 µM (active); with HT-29, 19.9 µM (inactive); in the experiment with OVCAR-3, 13.5 µM (inactive); with HL-60, 4.31 µM (inactive); in the experiment on M14 it was 2.16 µM (inactive). The GI50 is 3.98 µM (inactive) with SNB-75; 1.49 µM (inactive) in the experiment with HOP-92; 0.324 µM (active) in the experiment on LOX IMVI; 0.818 µM (active) in the experiment with CAKI-1; 59.8 µM (inactive) in the experiment on OVCAR-4; 22.2 µM (inactive) in the experiment with RXF 393. For the same molecule, the GI50 in the experiment with MDA-MB-435 is 15.7 µM (inactive); in the experiment with EKVX, 20 µM (inactive).

With `OC1C2[C@@H](O)CCCN2C[C@@H](O)[C@H]1O` (stereo not given in full), the GI50 in the experiment with SF-295, with DU-145, in the experiment on SK-MEL-2, with Malme-3M, in the experiment on CCRF-CEM and in the experiment with SF-539 was > 100 µM (inactive) throughout. Besides, the GI50 with NCI-H23, with NCI-H460, with HT-29, in the experiment with OVCAR-3, with HL-60 and in the experiment on M14 was > 100 µM (inactive) each time. Further, the GI50 in the experiment on SNB-75, with HOP-92, in the experiment with LOX IMVI, in the experiment on CAKI-1, with OVCAR-4 and in the experiment with RXF 393 was > 100 µM (inactive) in each case. For the same molecule, the GI50 in the experiment on MDA-MB-435 and in the experiment on EKVX was > 100 µM (inactive) in each case.
